Test results taken from patent US9908912B2, “Triclosan derivatives and uses thereof” (priority 2012, dated 2018).
In brackets after ≈: the same amount, converted by molar mass.

How the values were obtained:
[1] = system: Str. viridans; experiment: MIC in Nutrient Agar; type: cell-based, Streptococcus viridans; settings: Nutrient Agar containing 0.1 μg/ml of inducer; 37° C., 24 hours
Protocol: (§1) The triclosan-glycosides were added to Nutrient Agar (Oxoid CM0003; Thermofisher Scientific) and organisms were transferred onto the plates surface using a multi-point inoculation device (Oxoid Cathra, Thermofisher Scientific). The latter is essentially a metal plate containing a number of needles. Each needle tip (usually 36 per plate) dips into an organism suspension (in phosphate buffered saline; PBS) and the needles are then moved over the agar plate and lowered onto its surface. In this way the growth of colonies of up to 36 different organisms can be observed on one plate.
(§2) Nutrient Agar No. 2 was prepared according to the manufacturers instructions, autoclaved and cooled to 50° C. Test compounds were then added as filter sterilised solutions (50:50 deionised water:ethanol), to give final concentrations from 256 μg/ml to 0 μg/ml in doubling dilutions. […] The mixtures were swirled then four plates (25 ml molten agar) were poured for each concentration. Plates were dried in a laminar flow cabinet then inoculated with overnight cultures of organisms that had been decimally diluted twice in sterile saline solution (approximately 10^7 cfu/ml) using a multi-point inoculator. Plates were then incubated at 37° C. for 24 hours. MICs were determined as the concentration at which no growth was observed.

[2] = system: Kleb. pneumoniae ATCC 10031; experiment: MIC in Nutrient Broth No. 2; type: cell-based, Klebsiella pneumoniae; settings: Nutrient Broth No. 2
Protocol: (§3) Bacteria species as indicated in Table 1 were incubated for approximately 24 hours at 37° C.
(§4) The tests were repeated with the addition of inducers. Methyl glycoside was the main inducer used, but other suitable inducers include isopropyl-β-D-thiogalactopyranoside, p-nitrophenyl-α-L-arabinopyranoside and p-nitrophenyl-β-D-xylopyranoside. Concentration of inducer in all cases was 100 μg/ml.

[3] = system: Cr. sakazakii; experiment: MIC in Nutrient Agar; type: cell-based, Cronobacter sakazakii; settings: Nutrient Agar containing 0.1 μg/ml of inducer; 37° C., 24 hours
Protocol: as §1, §2

[4] = system: Strep. pneumoniae ATCC 6305; experiment: MIC in Nutrient Broth No. 2; type: cell-based, Streptococcus pneumoniae; settings: Nutrient Broth No. 2
Protocol: as §3, §4

[5] = system: S. aureus; experiment: MIC in Nutrient Agar; type: cell-based, Staphylococcus aureus; settings: 8 strains; Nutrient Agar containing 0.1 μg/ml of inducer; 37° C., 24 hours
Protocol: as §1, §2

[6] = system: Ent. faecium; experiment: MIC in Nutrient Agar; type: cell-based, Enterococcus faecium; settings: Nutrient Agar containing 0.1 μg/ml of inducer; 37° C., 24 hours
Protocol: as §1, §2

[7] = system: Strep. agalactiae OCC 182; experiment: MIC in Nutrient Broth No. 2; type: cell-based, Streptococcus agalactiae; settings: Nutrient Broth No. 2
Protocol: as §3, §4

[8] = system: S. saprophyticus; experiment: MIC in Nutrient Agar; type: cell-based, Staphylococcus saprophyticus; settings: Nutrient Agar containing 0.1 μg/ml of inducer; 37° C., 24 hours
Protocol: as §1, §2

[9] = system: E. hermanii ATCC 33650; experiment: MIC in Nutrient Broth No. 2; type: cell-based, Escherichia hermanii; settings: Nutrient Broth No. 2
Protocol: as §3, §4

[10] = system: Kleb. aerogenes; experiment: MIC in Nutrient Agar; type: cell-based, Klebsiella aerogenes; settings: Nutrient Agar containing 0.1 μg/ml of inducer; 37° C., 24 hours
Protocol: as §1, §2

[11] = system: Crono. sakazakii ATCC 29544; experiment: MIC in Nutrient Broth No. 2; type: cell-based, Cronobacter sakazakii; settings: Nutrient Broth No. 2
Protocol: as §3, §4

[12] = system: Ent. faecalis; experiment: MIC in Nutrient Agar; type: cell-based, Enterococcus faecalis; settings: Nutrient Agar containing 0.1 μg/ml of inducer; 37° C., 24 hours
Protocol: as §1, §2

[13] = system: Kleb. aerogenes NCTC 88167; experiment: MIC in Nutrient Broth No. 2; type: cell-based, Klebsiella aerogenes; settings: Nutrient Broth No. 2
Protocol: as §3, §4

[14] = system: Ent. cloacae ATCC 13047; experiment: MIC in Nutrient Broth No. 2; type: cell-based, Enterobacter cloacae; settings: Nutrient Broth No. 2
Protocol: as §3, §4

[15] = system: Str. pneumoniae; experiment: MIC in Nutrient Agar; type: cell-based, Streptococcus pneumoniae; settings: Nutrient Agar containing 0.1 μg/ml of inducer; 37° C., 24 hours
Protocol: as §1, §2

[16] = system: Ser. marcescens; experiment: MIC in Nutrient Agar; type: cell-based, Serratia marcescens; settings: Nutrient Agar containing 0.1 μg/ml of inducer; 37° C., 24 hours
Protocol: as §1, §2

[17] = system: Strep. pyogenes ATCC 19615; experiment: MIC in Nutrient Broth No. 2; type: cell-based, Streptococcus pyogenes; settings: Nutrient Broth No. 2
Protocol: as §3, §4

[18] = system: C. freundii; experiment: MIC in Nutrient Agar; type: cell-based, Citrobacter freundii; settings: Nutrient Agar containing 0.1 μg/ml of inducer; 37° C., 24 hours
Protocol: as §1, §2

[19] = system: Staph. saprophyticus ATCC 15305; experiment: MIC in Nutrient Broth No. 2; type: cell-based, Staphylococcus saprophyticus; settings: Nutrient Broth No. 2
Protocol: as §3, §4

[20] = system: Salmonella; experiment: MIC in Nutrient Agar; type: cell-based; settings: 11 strains; Nutrient Agar containing 0.1 μg/ml of inducer; 37° C., 24 hours
Protocol: as §1, §2

[21] = system: Bacillus subtilis; experiment: MIC in Nutrient Agar; type: cell-based; settings: Nutrient Agar containing 0.1 μg/ml of inducer; 37° C., 24 hours
Protocol: as §1, §2

[22] = system: Hafnia alvei; experiment: MIC in Nutrient Agar; type: cell-based; settings: Nutrient Agar containing 0.1 μg/ml of inducer; 37° C., 24 hours
Protocol: as §1, §2

[23] = system: Bacillus cereus; experiment: MIC in Nutrient Agar; type: cell-based; settings: Nutrient Agar containing 0.1 μg/ml of inducer; 37° C., 24 hours
Protocol: as §1, §2

[24] = system: Ps. aeruginosa; experiment: MIC in Nutrient Agar; type: cell-based; settings: Nutrient Agar containing 0.1 μg/ml of inducer; 37° C., 24 hours
Protocol: as §1, §2

[25] = system: Ent. cloacae; experiment: MIC in Nutrient Agar; type: cell-based, Enterobacter cloacae; settings: Nutrient Agar containing 0.1 μg/ml of inducer; 37° C., 24 hours
Protocol: as §1, §2

[26] = system: Strep. viridans OCC 234; experiment: MIC in Nutrient Broth No. 2; type: cell-based, Streptococcus viridans; settings: Nutrient Broth No. 2
Protocol: as §3, §4

[27] = system: Staph. aureus; experiment: MIC in Nutrient Broth No. 2; type: cell-based, Staphylococcus aureus; settings: 8 strains, Nutrient Broth No. 2
Protocol: as §3, §4

[28] = system: S. haemolyticus; experiment: MIC in Nutrient Agar; type: cell-based, Staphylococcus haemolyticus; settings: Nutrient Agar containing 0.1 μg/ml of inducer; 37° C., 24 hours
Protocol: as §1, §2

[29] = system: Str. agalactiae; experiment: MIC in Nutrient Agar; type: cell-based, Streptococcus agalactiae; settings: Nutrient Agar containing 0.1 μg/ml of inducer; 37° C., 24 hours
Protocol: as §1, §2

[30] = system: Staph. haemolyticus OCC 2223; experiment: MIC in Nutrient Broth No. 2; type: cell-based, Staphylococcus haemolyticus; settings: Nutrient Broth No. 2
Protocol: as §3, §4

[31] = system: Kleb. pneumoniae; experiment: MIC in Nutrient Agar; type: cell-based, Klebsiella pneumoniae; settings: Nutrient Agar containing 0.1 μg/ml of inducer; 37° C., 24 hours
Protocol: as §1, §2

[32] = system: Ent. aerogenes; experiment: MIC in Nutrient Agar; type: cell-based, Enterobacter aerogenes; settings: Nutrient Agar containing 0.1 μg/ml of inducer; 37° C., 24 hours
Protocol: as §1, §2

[33] = system: Aer. hydrophila; experiment: MIC in Nutrient Agar; type: cell-based, Aeromonas hydrophila; settings: Nutrient Agar containing 0.1 μg/ml of inducer; 37° C., 24 hours
Protocol: as §1, §2

Compound: O[C@@H]1[C@H](Oc2cc(Cl)ccc2Oc2ccc(Cl)cc2Cl)OC[C@@H](O)[C@H]1O [β-D-Arabinoside, triclosan-β-D-arabinopyranoside]
- MIC [1]: 128 µg/mL (≈ 304 µM)
- MIC ([2]; with inducer 100 μg/ml): 8 µg/mL (≈ 19 µM)
- MIC ([2]; without inducer): 4 µg/mL (≈ 9.49 µM)
- MIC [3]: 256 µg/mL (≈ 607 µM)
- MIC ([4]; with inducer 100 μg/ml): 64 µg/mL (≈ 152 µM)
- MIC ([4]; without inducer): 64 µg/mL (≈ 152 µM)
- MIC [5]: 8 to 16 µg/mL
- MIC [6]: 256 µg/mL (≈ 607 µM)
- MIC ([7]; with inducer 100 μg/ml): 128 µg/mL (≈ 304 µM)
- MIC ([7]; without inducer): 128 µg/mL (≈ 304 µM)
- MIC [8]: 64 µg/mL (≈ 152 µM)
- MIC ([9]; with inducer 100 μg/ml): 16 µg/mL (≈ 37.9 µM)
- MIC ([9]; without inducer): 32 µg/mL (≈ 75.9 µM)
- MIC [10]: 64 µg/mL (≈ 152 µM)
- MIC ([11]; with inducer 100 μg/ml): 64 µg/mL (≈ 152 µM)
- MIC ([11]; without inducer): 128 µg/mL (≈ 304 µM)
- MIC [12]: 256 µg/mL (≈ 607 µM)
- MIC ([13]; with inducer 100 μg/ml): 32 µg/mL (≈ 75.9 µM)
- MIC ([13]; without inducer): 32 µg/mL (≈ 75.9 µM)
- MIC ([14]; with inducer 100 μg/ml): 16 µg/mL (≈ 37.9 µM)
- MIC ([14]; without inducer): 16 µg/mL (≈ 37.9 µM)
- MIC [15]: 64 µg/mL (≈ 152 µM)
- MIC [16]: >256 µg/mL
- MIC ([17]; with inducer 100 μg/ml): 32 µg/mL (≈ 75.9 µM)
- MIC ([17]; without inducer): 32 µg/mL (≈ 75.9 µM)
- MIC [18]: 64 µg/mL (≈ 152 µM)
- MIC ([19]; with inducer 100 μg/ml): 64 µg/mL (≈ 152 µM)
- MIC ([19]; without inducer): 64 µg/mL (≈ 152 µM)
- MIC [20]: 32 to 64 µg/mL
- MIC [21]: 256 µg/mL (≈ 607 µM)
- MIC [22]: 8 µg/mL (≈ 19 µM)
- MIC [23]: 256 µg/mL (≈ 607 µM)
- MIC [24]: >256 µg/mL
- MIC [25]: 16 µg/mL (≈ 37.9 µM)
- MIC ([26]; with inducer 100 μg/ml): 128 µg/mL (≈ 304 µM)
- MIC ([26]; without inducer): 128 µg/mL (≈ 304 µM)
- MIC ([27]; with inducer 100 μg/ml): 4 to 8 µg/mL
- MIC ([27]; without inducer): 4 to 8 µg/mL
- MIC [28]: 16 µg/mL (≈ 37.9 µM)
- MIC [29]: 128 µg/mL (≈ 304 µM)
- MIC ([30]; with inducer 100 μg/ml): 16 µg/mL (≈ 37.9 µM)
- MIC ([30]; without inducer): 128 µg/mL (≈ 304 µM)
- MIC [31]: 8 µg/mL (≈ 19 µM)
- MIC [32]: 64 µg/mL (≈ 152 µM)
- MIC [33]: 256 µg/mL (≈ 607 µM)
